Results on two compounds are retold here after ChEMBL document CHEMBL1140009, “Synthesis, determination of stereochemistry, and evaluation of new bisindole alkaloids from the myxomycete Arcyria ferruginea: an approach for Wnt signal inhibitor” (Bioorg Med Chem Lett, 2007).

The experiment has as its system Cancer cell lines. The experiment can be described thus: Inhibition of Wnt signal in cancer cells by luciferase reporter gene assay. Type of experiment: cell-based. Particulars: Homo sapiens. Background: In a reporter assay the amount or activity of a reporter protein is the signal.

For `O=C1NC(=O)c2c1c1c3ccc(O)cc3[nH]c1c1[nH]c3cc(O)ccc3c21`, the Activity result was “Dose-dependent effect”.

Regarding `O=C1NC(=O)[C@@H](c2c[nH]c3cc(O)ccc23)[C@H]1c1c[nH]c2cc(O)ccc12`, the Activity result was “Dose-dependent effect”.
